Tests used:
[1] = biological target: T1, ABCB1 (P-glycoprotein) (Homo sapiens, UniProt P08183); assay: TP_TRANSPORTER: inhibition of photolabeling by Azidopine (Azidopine: 0.05 uM, K02: 10 uM) in membranes from CEM5k cells; format: functional, cell membranes, Membrane; conditions: probe Azidopine (0.05 uM)
[2] = biological target: ATP-dependent translocase ABCB1 (Homo sapiens, UniProt P08183); assay: TP_TRANSPORTER: transepithelial transport (basal to apical) in MDR1-expressing MDCK cells; format: functional, cell-based; conditions: dog
Sequence of ATP-dependent translocase ABCB1 (P08183 whole entry): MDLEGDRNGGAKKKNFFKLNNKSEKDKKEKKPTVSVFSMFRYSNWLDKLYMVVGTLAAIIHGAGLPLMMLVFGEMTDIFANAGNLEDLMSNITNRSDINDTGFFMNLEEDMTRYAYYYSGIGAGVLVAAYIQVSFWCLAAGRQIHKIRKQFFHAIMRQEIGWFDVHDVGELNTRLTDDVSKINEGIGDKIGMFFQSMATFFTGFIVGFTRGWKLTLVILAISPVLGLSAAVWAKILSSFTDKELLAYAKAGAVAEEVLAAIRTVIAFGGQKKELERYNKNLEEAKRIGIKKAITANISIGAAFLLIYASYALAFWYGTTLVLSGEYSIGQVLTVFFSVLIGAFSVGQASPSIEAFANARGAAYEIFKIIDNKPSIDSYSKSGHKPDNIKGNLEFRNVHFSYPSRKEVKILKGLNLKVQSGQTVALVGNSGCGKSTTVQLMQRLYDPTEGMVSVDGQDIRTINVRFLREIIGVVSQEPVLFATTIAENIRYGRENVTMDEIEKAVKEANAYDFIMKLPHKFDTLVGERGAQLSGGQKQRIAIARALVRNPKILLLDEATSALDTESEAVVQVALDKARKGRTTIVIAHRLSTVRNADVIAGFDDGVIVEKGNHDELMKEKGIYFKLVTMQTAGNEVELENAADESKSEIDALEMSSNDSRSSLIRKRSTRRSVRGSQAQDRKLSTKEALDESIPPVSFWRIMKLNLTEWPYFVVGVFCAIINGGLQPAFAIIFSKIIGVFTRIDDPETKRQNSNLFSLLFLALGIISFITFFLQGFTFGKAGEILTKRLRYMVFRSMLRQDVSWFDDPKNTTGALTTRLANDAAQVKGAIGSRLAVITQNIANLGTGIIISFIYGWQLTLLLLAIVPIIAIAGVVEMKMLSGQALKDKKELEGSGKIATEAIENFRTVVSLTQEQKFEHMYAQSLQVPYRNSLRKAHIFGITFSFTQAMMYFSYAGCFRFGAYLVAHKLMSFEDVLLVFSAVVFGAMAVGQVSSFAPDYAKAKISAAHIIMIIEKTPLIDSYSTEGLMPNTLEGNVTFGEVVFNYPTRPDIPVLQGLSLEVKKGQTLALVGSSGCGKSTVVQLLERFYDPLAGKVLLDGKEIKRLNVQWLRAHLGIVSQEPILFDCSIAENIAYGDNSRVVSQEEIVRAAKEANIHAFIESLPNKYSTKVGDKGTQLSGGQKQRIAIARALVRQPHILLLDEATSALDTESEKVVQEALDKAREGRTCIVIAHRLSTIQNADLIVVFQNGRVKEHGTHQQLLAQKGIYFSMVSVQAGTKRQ

[3] = biological target: T1, ABCB1 (P-glycoprotein); assay: TP_TRANSPORTER: inhibition of photolabeling by LU-49888 (LU-49888: 0.1 uM, K02: 10 uM) in membranes from CEM5k cells; format: functional, cell membranes, Membrane; conditions: probe LU-49888 (0.1 uM)

T1 sequence (P08183 whole entry): as above

inhibition at 10 µM [1]: 74% | Activity [2]: substrate [+] | inhibition at 10 µM [3]: 80%
Compound: O=C(N[C@H](/C=C/S(=O)(=O)c1ccccc1)CCc1ccccc1)[C@H](Cc1ccccc1)NC(=O)N1CCOCC1

Source: ChEMBL document CHEMBL2074391, “Overlapping substrate specificities of cytochrome P450 3A and P-glycoprotein for a novel cysteine protease inhibitor” (Drug Metab Dispos, 1998)
